Experimental data published in patent US20230398130A1, “METHODS AND COMPOSITIONS FOR DIFFERENTIATING STEM CELLS” (Massachusetts Institute of Technology, priority 2020, published 2023).

Experiments:
ISC-enriched organoids [1] = assay: Primary screen, 384-well 2.5-D organoid differentiation (ENR+CD, 6 days): basal lysozyme secretion (LYZ.NS); format: cell-based, murine; settings: for Dose.FC.LYZ.NS / Z.LYZ.NS: primary screen; for Dose.FC.LYZ.NS: ENR+CD 6 days, FC vs plate median; for Z.LYZ.NS: standard z score of FC
From the text: (§1) High-throughput screening.

ISC-enriched organoids [2] = assay: Primary screen, 384-well 2.5-D organoid differentiation (ENR+CD, 6 days): carbachol-induced lysozyme secretion (LYZ.S); format: cell-based, murine; settings: for Dose.FC.LYZ.S: primary screen, ENR+CD 6 days, FC vs plate median
From the text: as §1

ISC-enriched organoids [3] = assay: Primary screen, 384-well 2.5-D organoid differentiation (ENR+CD, 6 days, Target Selective Inhibitor Library, vs whole-plate median): ATP (CellTiter-Glo 3D, CTG); settings: for Dose.FC.CTG / Z.CTG: primary screen; for Dose.FC.CTG: ENR+CD 6 days, FC vs plate median; for Z.CTG: standard z score of FC
[4] = dose 0.08 uM (1st of 4 lines per treatment; dose not printed in this part)
[5] = dose 0.40 uM (2nd of 4 lines per treatment; dose not printed in this part)
[6] = dose 2.00 uM (3rd of 4 lines per treatment; dose not printed in this part)
[7] = dose 10.00 uM (4th of 4 lines per treatment; dose not printed in this part)

## C[C@H](Oc1cc(-c2cnn(C3CCNCC3)c2)cnc1N)c1c(Cl)ccc(F)c1Cl [(S)-crizotinib]
ISC-enriched organoids [1]; [4]
  SSMD.LYZ.NS_Rep (strictly standardized mean difference): 0.838
ISC-enriched organoids [1]; [5]
  SSMD.LYZ.NS_Rep (strictly standardized mean difference): 0.094
ISC-enriched organoids [1]; [6]
  SSMD.LYZ.NS_Rep (strictly standardized mean difference): −0.229
ISC-enriched organoids [1]; [7]
  SSMD.LYZ.NS_Rep (strictly standardized mean difference): −0.438
ISC-enriched organoids [1]; dose 0.08 uM
  Dose.FC.LYZ.NS: 0.193 log 2 fold change
  Z.LYZ.NS: 1.679
ISC-enriched organoids [1]; dose 0.40 uM
  Dose.FC.LYZ.NS: 0.009 log 2 fold change
  Z.LYZ.NS: 0.081
ISC-enriched organoids [1]; dose 2.00 uM
  Dose.FC.LYZ.NS: −0.034 log 2 fold change
  Z.LYZ.NS: −0.294
ISC-enriched organoids [1]; dose 10.00 uM
  Dose.FC.LYZ.NS: −0.068 log 2 fold change
  Z.LYZ.NS: −0.588
ISC-enriched organoids [2]; [4]
  SSMD.LYZ.S_Rep (strictly standardized mean difference): 0.881
  Z.LYZ.S (standard z score): 0.808
ISC-enriched organoids [2]; [5]
  SSMD.LYZ.S_Rep (strictly standardized mean difference): 0.084
  Z.LYZ.S (standard z score): 0.103
ISC-enriched organoids [2]; [6]
  SSMD.LYZ.S_Rep (strictly standardized mean difference): −0.343
  Z.LYZ.S (standard z score): −0.383
ISC-enriched organoids [2]; [7]
  SSMD.LYZ.S_Rep (strictly standardized mean difference): −0.491
  Z.LYZ.S (standard z score): −0.720
ISC-enriched organoids [2]; dose 0.08 uM
  Dose.FC.LYZ.S: 0.125 log 2 fold change
ISC-enriched organoids [2]; dose 0.40 uM
  Dose.FC.LYZ.S: 0.016 log 2 fold change
ISC-enriched organoids [2]; dose 2.00 uM
  Dose.FC.LYZ.S: −0.059 log 2 fold change
ISC-enriched organoids [2]; dose 10.00 uM
  Dose.FC.LYZ.S: −0.111 log 2 fold change
ISC-enriched organoids [3]; [4]
  SSMD.CTG_Rep (strictly standardized mean difference): 0.742
ISC-enriched organoids [3]; [5]
  SSMD.CTG_Rep (strictly standardized mean difference): 0.190
ISC-enriched organoids [3]; [6]
  SSMD.CTG_Rep (strictly standardized mean difference): 0.285
ISC-enriched organoids [3]; [7]
  SSMD.CTG_Rep (strictly standardized mean difference): 0.034
ISC-enriched organoids [3]; dose 0.08 uM
  Dose.FC.CTG: 0.241 log 2 fold change
  Z.CTG: 0.575
ISC-enriched organoids [3]; dose 0.40 uM
  Dose.FC.CTG: 0.054 log 2 fold change
  Z.CTG: 0.130
ISC-enriched organoids [3]; dose 2.00 uM
  Dose.FC.CTG: 0.111 log 2 fold change
  Z.CTG: 0.266
ISC-enriched organoids [3]; dose 10.00 uM
  Dose.FC.CTG: 0.019 log 2 fold change
  Z.CTG: 0.046
